“Also recorded” adds a separate entry of the source. Where two headings read alike, the source gives them in different places.
What was measured:
[1] = test system: sandwich-cultured human hepatocytes; test: Bile acid pool toxicity profile shift in SCHH, ApoTox-Glo Triplex Assay; type: cell-based; conditions: 5 mM and 11 mM glucose
Protocol: Utilizing similar methodology from the previous sections, hepatotoxicity was evaluated with ApoTox-Glo™ Triplex Assay.
The effects of the test compounds were evaluated in the presence of the individual bile acids and in the presence of a bile acid pool. The effects were compared to bile acid treatment alone. DMSO treatment alone was used as a comparator for hepatotoxicity. Hepatotoxicity was evaluated with ApoTox-Glo™ Triplex Assay, which assesses viability, cytotoxicity and apoptosis.
A bile acid mixture was evaluated, and was composed of 4 different bile acids maintained at a physiological relevant ratio of each bile acid. […] Individual bile acids were dosed using the concentration they represent in the mixture.
A treatment group without free fatty acids was used as a control. Hepatotoxicity was evaluated with ApoTox-Glo™ Triplex Assay which assessed viability, cytotoxicity and apoptosis.

[2] = test system: SCHH; test: Feasibility study: BA toxicity potency, Ambrisentan vs Sitaxsentan; type: cell-based, human; conditions: 2-200 uM test compound
From the text: Generally, the presently disclosed methods can in some embodiments comprise culturing SCHH with a concentration range of a bile acid (e.g. DCA), or bile acid pool to identify the toxicity profile of the bile acid (such as by measurement of ATP and/or LDH; dotted line in FIGS. 7 and 8). In a parallel study, SCHH can be exposed to a concentration range of DCA or combination of bile acids in the presence of a potential cholestatic hepatotoxicant.

[3] = molecular target: T1, NTCP (Homo sapiens, UniProt Q14973); test: In vitro assays of NTCP inhibition
T1 sequence (Q14973 1-349): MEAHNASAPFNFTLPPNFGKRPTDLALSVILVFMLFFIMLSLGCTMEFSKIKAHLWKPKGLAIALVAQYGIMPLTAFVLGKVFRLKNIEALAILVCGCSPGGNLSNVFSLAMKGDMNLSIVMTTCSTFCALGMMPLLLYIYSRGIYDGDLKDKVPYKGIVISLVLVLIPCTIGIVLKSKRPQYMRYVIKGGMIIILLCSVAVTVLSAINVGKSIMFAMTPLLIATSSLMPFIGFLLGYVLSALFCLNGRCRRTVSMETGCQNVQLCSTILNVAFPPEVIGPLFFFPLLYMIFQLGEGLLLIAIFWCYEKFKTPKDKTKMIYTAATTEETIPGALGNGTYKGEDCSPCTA

[4] = molecular target: BSEP (Homo sapiens, UniProt O95342); test: In vitro assay of BSEP effect
[5] = cited from earlier work
[6] = cited from earlier work; for clinical toxicity: clinic; for ALT elevations≥3× upper limit normal: large clinical trials
[7] = test system: SCHH; test: Bile acids at increasing concentrations in SCHH over 24 hours (ATP, LDH); type: cell-based, human; conditions: 24 hr exposure
Protocol: Bile acids GCA, GCDCA and GDCA were evaluated at increasing concentrations in SCHH over 24 hours. ATP (FIG. 9) and LDH (FIG. 10) content were measured.

[8] = molecular target: T2, FXR (Homo sapiens, UniProt Q96RI1); test: FXR antagonism: OSTβ mRNA induction in SCHH co-treated with CDCA and CsA; type: cell-based
T2 construct: endogenous in cells; host or cells: SCHH (sandwich-cultured hepatocytes from donors)
T2 sequence (Q96RI1 1-486): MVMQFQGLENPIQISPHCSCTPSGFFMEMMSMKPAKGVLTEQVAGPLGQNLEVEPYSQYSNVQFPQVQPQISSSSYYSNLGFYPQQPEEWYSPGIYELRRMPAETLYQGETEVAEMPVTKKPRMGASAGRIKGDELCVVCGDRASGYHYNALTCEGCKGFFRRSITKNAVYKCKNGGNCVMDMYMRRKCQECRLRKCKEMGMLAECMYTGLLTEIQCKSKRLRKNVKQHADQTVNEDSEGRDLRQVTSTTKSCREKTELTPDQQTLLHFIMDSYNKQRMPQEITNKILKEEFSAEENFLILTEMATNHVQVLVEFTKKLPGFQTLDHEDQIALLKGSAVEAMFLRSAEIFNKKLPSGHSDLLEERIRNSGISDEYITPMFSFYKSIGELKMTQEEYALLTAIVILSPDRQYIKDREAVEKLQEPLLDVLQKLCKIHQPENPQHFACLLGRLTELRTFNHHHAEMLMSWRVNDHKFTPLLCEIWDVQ
From the text: Alternatively, the reduction of OSTβ mRNA content may be explained by cytotoxicity under the conditions evaluated.

[9] = test system: SCHH; test: Cholestasis hepatotoxicity screening assay in SCHH (LDH leakage, ATP content), standard vs sensitization medium; type: cell-based; conditions: human, 24 h, 100 μM
From the text: As discussed above, hepatocytes become susceptible to bile acid toxicity (e.g. cholestatic hepatotoxicity) when drug exposure inhibits bile acid efflux routes (e.g. BSEP and/or MRP3/4) and 1) prevents (antagonize) FXR from sensing the rising intracellular concentrations of bile acids; or 2) inhibits bile acid efflux through OSTα/β; or 3) a combination of both. […] Briefly, hepatocytes were established in a sandwich-cultured configuration for four days. […] Drug exposures ranged from about 8× to about 16× Cmax to account for concentrating effect that can occur in the portal vein following oral administration of test compounds. Following 24 hours, LDH leakage and ATP content was evaluated utilizing commercially available assays.
The sensitization medium included free fatty acids and a physiological mixture of primary and secondary bile acids, described above (GCDCA, GCA, DCA, and GDCA) at an adequate concentration (250 μM) that minimized toxicity but challenged the hepatocytes bile acid homeostasis mechanism.

[10] = conditions used to examine FXR antagonism

Sequence of BSEP (O95342 whole entry, species assumed): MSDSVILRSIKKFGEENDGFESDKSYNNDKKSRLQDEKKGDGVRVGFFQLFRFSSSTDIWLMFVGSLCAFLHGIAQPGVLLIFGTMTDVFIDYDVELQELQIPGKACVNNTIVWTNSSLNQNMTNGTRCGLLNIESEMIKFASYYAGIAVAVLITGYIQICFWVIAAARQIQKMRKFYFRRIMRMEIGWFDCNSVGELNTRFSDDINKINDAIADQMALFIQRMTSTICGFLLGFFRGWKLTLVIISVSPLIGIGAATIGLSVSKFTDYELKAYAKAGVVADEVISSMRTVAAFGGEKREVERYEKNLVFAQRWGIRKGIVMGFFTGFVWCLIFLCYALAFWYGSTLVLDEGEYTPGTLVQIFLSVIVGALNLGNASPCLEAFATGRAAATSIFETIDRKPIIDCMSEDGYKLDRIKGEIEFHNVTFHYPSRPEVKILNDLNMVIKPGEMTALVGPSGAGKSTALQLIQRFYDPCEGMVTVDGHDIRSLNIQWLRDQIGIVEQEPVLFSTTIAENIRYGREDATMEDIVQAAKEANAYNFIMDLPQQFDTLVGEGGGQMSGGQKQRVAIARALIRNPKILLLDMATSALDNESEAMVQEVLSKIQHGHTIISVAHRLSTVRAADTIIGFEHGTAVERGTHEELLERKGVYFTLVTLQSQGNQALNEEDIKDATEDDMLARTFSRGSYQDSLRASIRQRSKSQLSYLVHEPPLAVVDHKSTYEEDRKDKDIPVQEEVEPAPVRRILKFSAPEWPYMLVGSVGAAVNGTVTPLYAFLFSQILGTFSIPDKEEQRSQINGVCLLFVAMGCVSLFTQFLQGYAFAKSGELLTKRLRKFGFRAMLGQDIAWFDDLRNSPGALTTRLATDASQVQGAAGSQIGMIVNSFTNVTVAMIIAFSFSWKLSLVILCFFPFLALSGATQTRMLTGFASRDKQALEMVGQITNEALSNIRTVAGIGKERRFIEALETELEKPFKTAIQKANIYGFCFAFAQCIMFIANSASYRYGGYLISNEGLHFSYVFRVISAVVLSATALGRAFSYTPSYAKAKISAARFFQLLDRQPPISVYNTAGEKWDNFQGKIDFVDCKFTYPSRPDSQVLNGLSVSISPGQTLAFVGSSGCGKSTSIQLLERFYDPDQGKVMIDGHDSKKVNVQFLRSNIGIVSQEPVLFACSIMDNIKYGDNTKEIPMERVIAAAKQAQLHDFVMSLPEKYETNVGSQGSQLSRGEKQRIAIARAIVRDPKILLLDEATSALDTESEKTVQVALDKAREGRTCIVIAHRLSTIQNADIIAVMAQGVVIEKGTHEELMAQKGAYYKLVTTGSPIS

SMILES: Cc1cc2c(cc1CC(=O)c1sccc1S(=O)(=O)Nc1onc(C)c1Cl)OCO2 [Sitaxsentan]
- effect on hepatotoxicity of the bile acid pool [1]: did not alter the hepatotoxicity of the bile acid pool
- BA toxicity potency [2]: Decreased BA toxicity potency
- NTCP effect [3]: potent/efficacious NTCP inhibitor
- BSEP effect [4]: no BSEP effect
- Cmax ([5]; in vivo): 23.5 µM
- clinical toxicity [6]: Toxicity in clinic after 5 months; liver likely not primary site of toxicity; also recorded: No toxicity @ 3 months

SMILES: C[C@H](CCC(=O)NCC(=O)O)[C@H]1CC[C@H]2[C@@H]3[C@H](O)C[C@@H]4C[C@H](O)CC[C@]4(C)[C@H]3CC[C@]12C [GCDCA]
- relative toxicity in the ATP assay [7]: equaled GDCA
- relative toxicity in the LDH assay [7]: GDCA was greater than GCDCA

SMILES: C[C@H](CCC(=O)NCC(=O)O)[C@H]1CC[C@H]2[C@@H]3CC[C@@H]4C[C@H](O)CC[C@]4(C)[C@H]3C[C@H](O)[C@]12C [GDCA]
- relative toxicity in the ATP assay [7]: GCDCA equaled GDCA
- relative toxicity in the LDH assay [7]: greater than GCDCA

SMILES: CN(CCOc1ccc(CC2SC(=O)NC2=O)cc1)c1ccccn1 (stereo not shown) [rosiglitazone]
- Cmax ([5]; Dawson et al. 2012): 1 µM
- ALT elevations≥3× upper limit normal [6]: not different from placebo recipients

SMILES: COc1cccc(Cn2cc(C(=O)Nc3ccc(C)c(S(=O)(=O)N4CCOCC4)c3)c(-c3ccc(C)cc3)n2)c1 [DY268]
- induction of OSTβ mRNA content ([8]; SCHH co-treated with CDCA and CsA, troglitazone 75-100 μM): A similar effect was observed

SMILES: CCc1ccc(CCOc2ccc(CC3SC(=O)NC3=O)cc2)nc1 (stereo not shown) [pioglitazone]
- Cmax ([5]; Dawson et al. 2012): 2.9 µM
- ALT elevations≥3× upper limit normal [6]: not different from placebo recipients

SMILES: Cc1c(C)c2c(c(C)c1O)CCC(C)(COc1ccc(CC3SC(=O)NC3=O)cc1)O2 (stereo not shown) [troglitazone]
- ATP content [9]: 0.9 % of control
- LDH leakage [9]: 863 % of control
- LDH secretion [9]: 490 % of control
- loss of ATP content [9]: > 99 % of control
- ATP content [8, 10]: no significant decreases of ATP content
- LDH leakage [8, 10]: no significant decreases of ATP content or increases of LDH leakage

SMILES: C[C@H](CCC(=O)NCC(=O)O)[C@H]1CC[C@H]2[C@@H]3[C@H](O)C[C@@H]4C[C@H](O)CC[C@]4(C)[C@H]3C[C@H](O)[C@]12C [GCA]
- cytotoxicity of bile acid ([7]; increasing concentrations, ATP and LDH): not cytotoxic

SMILES: COC(c1ccccc1)(c1ccccc1)[C@H](Oc1nc(C)cc(C)n1)C(=O)O [Ambrisentan]
- BA toxicity potency [2]: No change in BA toxicity potency
- Cmax ([5]; in vivo): 3 µM
- clinical toxicity [6]: Well tolerated; no toxicity
